Columns and labels:
integrin β1 = details: chondrocytes; cited from earlier work
[1] = Modulated differential scanning calorimetry of tissue scaffolds; assay type: physicochemical
Procedure: Following crosslinking, five specimens (n=5) from the 7 treatment types were rinsed in DI water and placed in an aluminum pan with a hermetic lid. The treatment types were EDC/NHS, untreated, 15 minutes crosslinking with 3 mM genipin, 4 hours crosslinking with 3 mM genipin, 8 hours crosslinking with 3 mM genipin, 24 hours crosslinking with 3 mM genipin, and 24 hours crosslinking with 10 mM genipin. The 10 mM treatment type was added to verify that increasing the genipin concentration would further increase the amount of crosslinking that occurred. The reference pan consisted of an aluminum pan containing […] of double distilled water and sealed with a hermetic lid. Each specimen was then subjected to modulated differential scanning calorimetry using a Q2000 DSC (TA Instruments, New Castle, DE, USA) to raise the temperature from 5° C. to 120° C. at a rate of 5° C. per minute with a modulation of ±0.64° C. every 80 s. The mean denaturation temperature is reported.

[2] = test system: L929 mouse connective tissue fibroblasts; assay: Cell proliferation reagent WST-1 cell viability assay on scaffolds; assay type: cell-based; details: scaffolds crosslinked with 3 mM genipin
Procedure: L-929 mouse fibroblast cells were obtained from ATCC (Manassas, VA). They were cultured in EMEM (ATCC, Manassas, VA, USA) supplemented with 10% (v/v) horse serum (Sigma-Aldrich, St. Louis, MO, USA) and 200 U mL^−1 penicillin-streptomycin (Sigma-Aldrich, St. Louis, MO, USA) solution in an incubator at 37° C. and 5% CO2. 1 mL of 3×10^4 cell/mL cell solution was plated on each scaffold and allowed to grow for 1, 3, 7, or 10 days with fresh media being replaced every […].
Cell proliferation reagent WST-1 (Roche Diagnostics Corporation, Indianapolis, IN, USA) was used to evaluate the biocompatibility of the scaffolds. The WST-1 assay works via the use of tetrazolium salts. The salts were added to wells containing cells and the tissue discs. The tetrazolium salts were then cleaved to formazan by mitochondrial dehydrogenase activity. This correlates to the number of metabolically active cells. The resulting formazan was quantified using UV-vis absorbance measurements. […] After gentle mixing, 100 μL was removed from each well and absorbance readings were acquired using a Tecan Safire II plate reader. The resulting values were then calculated relative to the absorbance found on the untreated control scaffold. […]

COC(=O)C1=CO[C@@H](O)[C@@H]2C(CO)=CC[C@H]12 [genipin, methyl (1S,2R,6S)-2-hydroxy-9-(hydroxymethyl)-3-oxabicyclo[4.3.0]nona-4,8-diene-5-carboxylate]
mRNA expression of integrin β1 (integrin β1): halved
Denaturation temperature of tissue scaffold ([1]; 15 minutes of genipin crosslinking, 3 mM, vs untreated): significantly increases
Denaturation temperature of tissue scaffold ([1]; 24 hours of crosslinking, 3 mM genipin): significant increase
Denaturation temperature of tissue scaffold ([1]; higher genipin concentration (10 mM vs 3 mM), 24 hours): significantly increased
Cytotoxicity (biocompatibility results) [2]: not cytotoxic
